Results as given in patent publication US8063029B2, “Pharmaceutical composition” (FCB I LLC, priority 2002, dated 2011).

Experiments:
[1] = in vivo; cited from earlier work
[2] = Solubility / miscibility in carrier fluids; assay type: physicochemical
Excerpt: In such situations, when the first fluid evaporates, the compound of interest is left in a supersaturated environment in which it is favorable for the compound to pass into a less saturated environment, in this case through the membrane. […] Accordingly, if increased flux for oxacyclohexadecan-2-one is desired, a carrier may include ethanol and propylene glycol and/or water. […] Accordingly, if increased flux for testosterone is desired, a carrier may include ethanol and water or ethanol and propylene glycol. In addition, water may be used to prevent “reverse-flux”, or the flow of water from the membrane into the matrix of the composition.

C[C@]12CC[C@H]3[C@@H](CCC4=CC(=O)CC[C@@]43C)[C@@H]1CC[C@@H]2O [testosterone, 17β-hydroxyandrost-4-en-3-one]
typical half-life in the blood serum [1]: 10 to 100 min
solubility / miscibility ([2]; in ethanol): soluble
solubility / miscibility ([2]; in propylene glycol): partially soluble
solubility / miscibility ([2]; in water): not soluble
